According to US20090011974A1, “Scavenger Receptor B1 (Cla-1) Targeting for the Treatment of Infection, Sepsis and Inflammation” (priority 2002, published 2009):
“Also recorded” adds a separate entry of the source. Where no end group is shown, it is not given here.

Experiments:
[1] = test system: THP-1 cells; assay: LPS-stimulated cytokine production in THP-1 cells (ELISA); type: cell-based, human; settings: 10 ng/ml LPS, 24 h
Method: (§1) THP-1 and CLA-1 overexpressing HeLa cells. Human monocyte-macrophages, THP-1 (ATCC [American Type Culture Collection] TIB 71), are grown in 48-well plates in RPMI 1640 medium supplemented with 10% fetal calf serum (FCS), penicillin (100 U/ml), and streptomycin (100 μg/ml). All experiments involving LPS-induced interleukin production utilize the same media except that 1% FCS was used. Hela cells were cultured as previously reported (Vishnyakova, T. G. et al. (2003) “BINDING AND INTERNALIZATION OF LIPOPOLY[…] CLA-1, A HUMAN ORTHOLOGUE OF RODENT […] RECEPTOR B1,” J. Biol. Chem 278:22771-22780).
Assays for cytokines and lactate dehydrogenase (LD). […]

[2] = test system: CLA-1 overexpressing HeLa cells; assay: Bodipy-LPS uptake in HeLa cells in the presence of competitors; type: cell-based, human; settings: for effect on Bodipy-LPS uptake (surface binding and internalization): 100-fold excess of peptide, HeLa cells
Method: HeLa cells cultured on collagen-coated glass micro-slides are incubated with 5 μg/ml of Alexa 568 HDL, 1-0.5 μg/ml of Alexa 568 apoA-I, 1-0.5 μg/ml of Alexa 568 apoA-II or 0.5 μg/ml Bodipy-LPS for 1-2 hour in a CO2 incubator in DMEM containing 20 mg/ml BSA. […] Imaging is performed in PBS containing 0.4 mg/ml of Trypan Blue as the quenching agent. […] For co-localization, Bodipy-LPS and Alexa-568-apoA-I are used at the same concentration of 0.5 μg/ml. A Nikon video-imaging system, consisting of a phase contrast inverted microscope equipped with set of objectives and filters for immunofluorescence and connected to a digital camera and image processor, is used for recording Alexa-568-HDL and Bodipy-LPS uptake. For co-localization experiments, fluorescence is viewed with a Zeiss 510 laser scanning confocal microscope, using a krypton-argon-Omnichrome laser with excitation wavelengths of 488 and 568 nm for Bodipy-LPS and Alexa-568, respectively.
(§2) HeLa cells cultured on glass micro-slides are incubated with 5 μg/ml of Alexa568 HDL, 1-0.5 μg/ml of Alexa 568 apoA-I, 1-0.5 μg/ml of Alexa 568 L-37PA or 0.5 μg/ml Bodipy-LPS for 1-2 h in a CO2 incubator in DMEM containing 1 mg/ml BSA. […] For co-localization, Bodipy-LPS and Alexa 568-HDL or Bodipy-LPS and Alexa 568-L-37PA were used at the same concentrations of 0.5 μg/ml. Fluorescence was viewed with a Zeiss 510 laser scanning confocal microscope, using a krypton-argon-Omnichrome laser with excitation wavelengths of 488 and 568 nm for Bodipy-LPS and Alexa-568 labels, respectively.
Competition Experiments. The cells are incubated in 1 μg/ml Bodipy-LPS in the presence increasing concentrations of studied peptides. After 2-h incubation cells are washed with ice-cold PBS and lysed in 0.1% sodium dodecyl sulfate (SDS). The lysate fluorescence is measured by HTS7000 Bioassay reader (Perkin Elmer) using 488 nm for excitation and 533 nm for emission monitoring.

[3] = test system: THP-1 cells; assay: LTA, Gro-EL and HSP60 stimulated IL-8/IL-6 production in THP-1 cells; type: cell-based, human; settings: 1 μg/ml LTA or Gro-EL, 10-200 fold excess of peptide
Method: as §1
Assays for cytokines and lactate dehydrogenase (LD).

[4] = Limulus amebocyte lysate (LAL) assay for LPS incubated with peptides; settings: 10 ng/ml LPS, 10 μg/ml peptide, 37° C., 24 h; for effect on LAL activity of LPS in the absence of bivalent cations: PBS; for effect on LAL activity of LPS in media containing bivalent cations: RPMI-1640 1% FCS or DPBS
Text: Limulus Amebocyte Lysate (LAL) Assay for LPS.
Limulus amebocyte lysate (LAL) assay for LPS.

[5] = target: T1, CLA-1 (Homo sapiens, UniProt Q8WTV0); assay: Confocal uptake of Alexa/Bodipy labelled ligands in CLA-1 expressing versus mock transfected HeLa cells; type: cell-based; settings: for uptake in CLA-1 transfected HeLa cells compared with mock-transfected control: labelled ligand, confocal microscopy
T1 construct: using the expression plasmid pTRE2 (Clontech, Pal Alto, Calif.), encoding a CLA-1 protein (pTRE2-CLA-1); expressed in transfected cells; host or cells: HeLa (Tet-off) cells (Clontech), stably co-transfected with pTRE2-CLA-1 and pTK-Hyg and selected with hygromycin
T1 sequence (Q8WTV0 1-509 isoform Q8WTV0-2): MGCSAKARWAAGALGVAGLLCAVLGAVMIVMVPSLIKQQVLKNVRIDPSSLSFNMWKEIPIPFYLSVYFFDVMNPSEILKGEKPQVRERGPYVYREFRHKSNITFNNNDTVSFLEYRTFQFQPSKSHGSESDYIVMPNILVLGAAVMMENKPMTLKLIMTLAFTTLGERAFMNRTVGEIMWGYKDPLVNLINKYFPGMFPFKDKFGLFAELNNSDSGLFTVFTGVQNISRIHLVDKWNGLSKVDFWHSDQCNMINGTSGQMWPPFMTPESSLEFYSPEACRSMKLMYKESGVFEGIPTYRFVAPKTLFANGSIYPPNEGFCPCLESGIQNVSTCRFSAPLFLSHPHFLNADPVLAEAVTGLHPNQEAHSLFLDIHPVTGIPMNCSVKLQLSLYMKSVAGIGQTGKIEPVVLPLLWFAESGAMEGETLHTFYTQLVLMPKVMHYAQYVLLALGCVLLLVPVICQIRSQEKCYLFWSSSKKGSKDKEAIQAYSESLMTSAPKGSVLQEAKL
Method: Preparation of BODIPY-LPS and Alexa-568 HDL, Lipid-free ApoA-I, L-37PA, L2D-37PA and 18A. HDL, apoA-I, L-37PA, L2D-37PA and 18A are conjugated with Alexa-568, SE (Molecular Probes, protein labeling kit) following the kit instructions. The Alexa ligands are analyzed by 10-20% Tricine-SDS peptide gel electrophoresis. Gels are scanned using Variable Mode Imager, Typhoon 9200, Molecular Dynamics. Alexa-labeled preparations of HDL, apolipoproteins and the peptides are found in appropriate positions with molecular masses of 28, 5 and 2.5 kDa for apoA-I, L-37PA and 18PA, respectively.
as §2

[6] = target: T1, CLA-1; assay: Competition for Alexa 488-SAA uptake in CLA-1 overexpressing and mock transfected HeLa cells (FACS); type: binding; settings: mock transfected and CLA-1 overexpressing HeLa cells
Method: Competition experiments. Cells are cultured for 24 hr in serum free DMEM before experiments. […] For KKB-1 anti-CLA-1 blocking experiments, cells are pre-incubated with KKB-1 rabbit anti-serum (non-immune rabbit serum as a negative control) at a dilution of 1:10 followed by ligand addition to a final concentration of 5 μg/ml and a 1-hour incubation. Cell fluorescence was analyzed by FACS analyses.

| Substance | effect on LPS-stimulated cytokine (IL-8, IL-6, TNF-α) production [1] | effect on Bodipy-LPS uptake (surface binding and internalization) [2] | effect on LTA and Gro-EL stimulated IL-8 and IL-6 production [3] | effect on LAL activity of LPS in the absence of bivalent cations [4] | effect on LAL activity of LPS in media containing bivalent cations [4] | SR-BI/CLA-1 ligand property [5] | uptake in CLA-1 transfected HeLa cells compared with mock-transfected control [5] | competition with Alexa 488-SAA for CLA-1 [6] | effect on LAL activity of LPS in the absence of bivalent cations ([4]; listed as L2D-37P A) | effect on LAL activity of LPS in media containing bivalent cations ([4]; listed as L2D-37P A) | effect on surface bound Bodipy-LPS ([2]; 100× excess, CLA-1 overexpressing cells) | effect on Bodipy-LPS uptake ([2]; 200× excess of unlabeled lipid poor apoA-I, CLA-1 overexpressing HeLa cells) | competition with Alexa 488-SAA for CLA-1 ([6]; listed as ApoA-I) |
| --- | --- | --- | --- | --- | --- | --- | --- | --- | --- | --- | --- | --- | --- |
| DWLKAFYDKVAEKLKEAF [Peptide 18A] | did not affect LPS-uptake and LPS-stimulated cytokine production; also recorded: Neither L2D-37PA nor 18A, a single helix containing peptide, are effective inhibitors; also recorded: without effect | did not affect LPS-uptake | low blocking efficiency | similarly neutralized LPS activity | had no effect on the LAL activity of LPS in culture media | less potent SR-BI/CLA-1 ligand | not increased |  |  |  |  |  |  |
| DWLKAFYDKVAEKLKEAF-P-DWLKAFYDKVAEKLKEAF [L3D-37PA] (DWLKAFYDKVAEKLKEAFPDWLKAFYDKVAEKLKEAF; also: triple D-amino acid substitutions, places not given here) [Peptide L3D-37PA] | not effective blockers |  | not effective blockers; also recorded: no effect was observed |  |  |  |  | No competition is demonstrated |  |  |  |  |  |
| DWLKAFYDKVAEKLKEAF-P-DWLKAFYDKVAEKLKEAF [L1D-37PA] (DWLKAFYDKVAEKLKEAFPDWLKAFYDKVAEKLKEAF; not fully specified (residue 1)) [Peptide L1D-37PA] | not effective blockers |  | not effective blockers; also recorded: no effect was observed |  |  |  |  | No competition is demonstrated |  |  |  |  |  |
| DWLKAFYDKVAEKLKEAF-P-DWLKAFYDKVAEKLKEAF [L2D-37PA] (DWLKAFYDKVAEKLKEAFPDWLKAFYDKVAEKLKEAF; also: two D-amino acids per helix, places not given here) [Peptide L2D-37PA] | did not affect LPS-uptake and LPS-stimulated cytokine production; also recorded: Neither L2D-37PA nor 18A, a single helix containing peptide, are effective inhibitors; also recorded: not effective blockers; also recorded: without effect; also recorded: block neither LPS uptake nor LPS/LTA/Gro-EL induced interleukin (IL-6 and IL-8) secretion | did not affect LPS-uptake; also recorded: does not decrease LPS uptake; also recorded: block neither LPS uptake | not effective blockers; also recorded: block neither LPS uptake nor LPS/LTA/Gro-EL induced interleukin (IL-6 and IL-8) secretion; also recorded: no effect was observed | also decreases LPS activity in the absence of bivalent cations | No substantial LPS neutralization; also recorded: had no effect in the presence of bivalent cations | do not bind to SR-BI/CLA-1 | not increased | No competition is demonstrated | similarly neutralized LPS activity | had no effect on the LAL activity of LPS in culture media |  |  |  |
| apoA-I: lipid poor apolipoprotein A-I purified from human plasma |  |  |  |  |  |  | Increased surface binding and internalization | compete with Alexa 488-SAA for CLA-1 |  |  | eliminated surface bound Bodipy-LPS | dramatically reduces Bodipy-LPS uptake | competed for CLA-1 binding with Alexa 488-SAA |
